Measured values taken from PubChem BioAssay (NCI).
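Compound exposure: 48 hours, 5 concentrations, 96-well plates. GI50 = concentration required for 50% inhibition of growth. At the TGI there is no net growth.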

What was measured:
Assay in all cases: inhibition of tumour cell growth, NCI panel, 48 h
[1] = test system: SR leukemia
[2] = test system: A549 NSCLC
[3] = test system: LOX IMVI melanoma
[4] = test system: MALME-3M melanoma
[5] = test system: HL-60(TB) leukemia
[6] = test system: ACHN renal
[7] = test system: SK-OV-3 ovarian
[8] = test system: MDA-N
[9] = test system: MOLT-4 leukemia
[10] = test system: HS 578T breast
[11] = test system: HOP-92 NSCLC
[12] = test system: COLO 205 colon
[13] = test system: OVCAR-8 ovarian
[14] = test system: SF-539 CNS
[15] = test system: OVCAR-3 ovarian
[16] = test system: DU-145 prostate
[17] = test system: UO-31 renal
[18] = test system: HCT-15 colon
[19] = test system: UACC-62 melanoma
[20] = test system: MDA-MB-435
[21] = test system: NCI-H460 lung
[22] = test system: SF-295 CNS
[23] = test system: SF-268 CNS
[24] = test system: K-562 leukemia
[25] = test system: OVCAR-5 ovarian
[26] = test system: MDA-MB-231 breast
[27] = test system: SNB-19 CNS
[28] = test system: SK-MEL-28 melanoma
[29] = test system: SN12C renal
[30] = test system: SK-MEL-5 melanoma
[31] = test system: CAKI-1 renal
[32] = test system: RPMI-8226 leukemia
[33] = test system: HOP-62 NSCLC
[34] = test system: NCI/ADR-RES ovarian
[35] = test system: NCI-H226 lung
[36] = test system: HCT-116 colon
[37] = test system: T-47D breast
[38] = test system: PC-3 prostate
[39] = test system: IGROV1 ovarian
[40] = test system: NCI-H23 lung
[41] = test system: OVCAR-4 ovarian
[42] = test system: A498 renal
[43] = test system: U251 CNS
[44] = test system: NCI-H522 lung
[45] = test system: TK-10 renal
[46] = test system: HT29 colon
[47] = test system: UACC-257 melanoma
[48] = test system: HCC-2998 colon
[49] = test system: SW-620 colon
[50] = test system: MCF7 breast
[51] = test system: 786-0 renal
[52] = test system: SK-MEL-2 melanoma
[53] = test system: SNB-75 CNS
[54] = test system: CCRF-CEM leukemia
[55] = test system: M14 melanoma
[56] = test system: RXF 393 renal
[57] = test system: EKVX NSCLC
[58] = test system: KM12 colon
[59] = test system: BT-549 breast

O=[N+]([O-])/C(C(Cl)=C(Cl)Cl)=C(/Sc1ccccc1)N1CCCCC1
TGI [1]: > 26.4 µM | TGI [2]: > 100 µM | TGI [3]: > 100 µM | TGI [4]: > 100 µM | TGI [5]: > 26.8 µM | TGI [6]: > 100 µM | TGI [7]: > 100 µM | TGI [8]: > 100 µM | TGI [9]: > 100 µM | TGI [10]: > 100 µM | TGI [11]: > 100 µM | TGI [12]: > 100 µM | TGI [13]: > 100 µM | TGI [14]: > 100 µM | TGI [15]: > 100 µM | TGI [16]: > 100 µM | TGI [17]: > 100 µM | TGI [18]: > 100 µM | TGI [19]: > 100 µM | TGI [20]: > 100 µM | TGI [21]: > 100 µM | TGI [22]: > 100 µM | TGI [23]: > 100 µM | TGI [24]: > 100 µM | TGI [25]: > 100 µM | TGI [26]: > 100 µM | TGI [27]: > 100 µM | TGI [28]: > 100 µM | TGI [29]: > 100 µM | TGI [30]: > 88.1 µM | TGI [31]: > 100 µM | TGI [32]: > 100 µM | TGI [33]: > 100 µM | TGI [34]: > 100 µM | TGI [35]: > 100 µM | TGI [36]: > 100 µM | TGI [37]: > 100 µM | TGI [38]: > 100 µM | TGI [39]: > 100 µM | TGI [40]: > 100 µM | TGI [41]: > 100 µM | TGI [42]: > 100 µM | TGI [43]: > 100 µM | TGI [44]: > 100 µM | TGI [45]: > 100 µM | TGI [46]: > 100 µM | TGI [47]: 99.1 µM | TGI [48]: > 100 µM | TGI [49]: > 100 µM | TGI [50]: > 100 µM | TGI [51]: > 100 µM | TGI [52]: > 100 µM | TGI [53]: > 100 µM | TGI [54]: > 100 µM | TGI [55]: > 100 µM | TGI [56]: > 100 µM | TGI [57]: > 100 µM | TGI [58]: > 100 µM | TGI [59]: > 100 µM

C[C@H]1C(Oc2ccc(O)cc2)OC2OC3(C)CCC4[C@H](C)CCC1C24OO3 (some centres not stated)
TGI [1]: > 100 µM | GI50 [2]: 12.2 µM | TGI [2]: 30.6 µM | GI50 [3]: 11.5 µM | TGI [3]: 30.6 µM | GI50 [4]: 14.1 µM | TGI [4]: 28.9 µM | GI50 [5]: 0.57 µM | TGI [5]: 24.4 µM | GI50 [6]: 3.97 µM | TGI [6]: 19 µM | GI50 [7]: 21.1 µM | TGI [7]: 47.8 µM | GI50 [8]: 11.1 µM | TGI [8]: 26.4 µM | TGI [9]: > 63.6 µM | GI50 [10]: 11.9 µM | TGI [10]: 32.7 µM | GI50 [11]: 11.5 µM | TGI [11]: 25 µM | GI50 [12]: 0.867 µM | TGI [12]: 13.7 µM | GI50 [13]: 2.12 µM | TGI [13]: 25.4 µM | GI50 [14]: 16.3 µM | TGI [14]: 33 µM | GI50 [15]: 6.12 µM | TGI [15]: 32.8 µM | GI50 [16]: 20.1 µM | TGI [16]: 43.2 µM | GI50 [17]: 11 µM | TGI [17]: 26.2 µM | GI50 [18]: 2.36 µM | TGI [18]: 23.8 µM | GI50 [19]: 12.3 µM | TGI [19]: 25.5 µM | GI50 [20]: 12.4 µM | TGI [20]: 46.3 µM | GI50 [21]: 15.1 µM | TGI [21]: 30.5 µM | GI50 [22]: 16.2 µM | TGI [22]: 34.5 µM | GI50 [23]: 12.9 µM | TGI [23]: 27.2 µM | GI50 [24]: > 42 µM | TGI [24]: > 100 µM | GI50 [25]: 10.4 µM | TGI [25]: 25.9 µM | GI50 [26]: 15.8 µM | TGI [26]: 30.9 µM | GI50 [27]: 17.1 µM | TGI [27]: 36.5 µM | GI50 [28]: 18.4 µM | TGI [28]: 39.5 µM | GI50 [29]: 11.7 µM | TGI [29]: 26 µM | GI50 [30]: 13.2 µM | TGI [30]: 27.3 µM | GI50 [31]: 18.5 µM | TGI [31]: 40.8 µM | TGI [32]: > 63.1 µM | GI50 [33]: 21.8 µM | TGI [33]: 51.5 µM | GI50 [34]: 8.04 µM | TGI [34]: 25.8 µM | GI50 [35]: 15.9 µM | TGI [35]: 31.2 µM | GI50 [36]: 8.56 µM | TGI [36]: 25 µM | GI50 [37]: 2.1 µM | TGI [37]: 26.9 µM | GI50 [38]: 0.251 µM | TGI [38]: 14.8 µM | GI50 [39]: 16.7 µM | TGI [39]: 32.5 µM | GI50 [40]: 12 µM | TGI [40]: 27.7 µM | GI50 [41]: 4.7 µM | TGI [41]: 31 µM | GI50 [42]: 16.7 µM | TGI [42]: 31.2 µM | GI50 [43]: 11 µM | TGI [43]: 25.8 µM | GI50 [44]: 11 µM | TGI [44]: 25.3 µM | GI50 [45]: 15.9 µM | TGI [45]: 37.8 µM | GI50 [46]: 8.86 µM | TGI [46]: 27.4 µM | GI50 [47]: 13.1 µM | TGI [47]: 28.4 µM | GI50 [49]: 8.74 µM | TGI [49]: 43.2 µM | GI50 [50]: 12.6 µM | TGI [50]: 32.5 µM | GI50 [51]: 10.7 µM | TGI [51]: 27.2 µM | GI50 [52]: 7.1 µM | TGI [52]: 23 µM | GI50 [53]: 17.6 µM | TGI [53]: 39.3 µM | GI50 [54]: 8.52 µM | TGI [54]: > 100 µM | GI50 [55]: 16.1 µM | TGI [55]: 34.3 µM | GI50 [56]: 19.1 µM | TGI [56]: 41.3 µM | GI50 [57]: 6.42 µM | TGI [57]: 23.1 µM | GI50 [58]: 11.4 µM | TGI [58]: > 82.1 µM | GI50 [59]: 8.34 µM | TGI [59]: 23.7 µM
